The text below walks through data of article PMC7407272, “Induction of Lysosome Membrane Permeabilization as a Therapeutic Strategy to Target Pancreatic Cancer Stem Cells” (Cancers, 2020).

Data set [1] can be described thus: mESC viability (MTS) screen and dose response. Format: cell-based, mouse. Particulars: mouse, mouse embryonic stem cells (mESCs), 5 µM, MTS. The method, then: (§1) Mouse embryonic stem cells were cultured in Dulbecco’s Modified Eagle Medium (DMEM) containing 15% Fetal bovine serum (FBS), non-essential amino acids (NEAA), 2-mercaptoethanol, and Leukemia inhibitory factor (LIF) and passaged on gelatinized plates under standard conditions.
(§2) Murine embryonic stem cells (mESCs) were plated at 20,000 cells per well in gelatinized 96 well plates. Compounds from the 640 compound ETP library were added by a Beckman FX 96 tip to achieve a final concentration of 5 µM in each well, and each compound was tested in duplicate. Cells were treated for a total of 30 h prior to assessing cell viability using CellTiter 96® AQueous One Solution Cell Proliferation Assay (MTS) assay according to manufacturer’s instructions (G3582, Promega, Madison, WI, USA). Dose response curves were carried out on mESCs under the same conditions using indicated compounds. To test the viability of CSCs, 10,000 PDAC cells were plated in spheroid conditions and immediately treated with indicated compounds and concentrations for the duration of the sphere formation assay. For adherent non-CSCs, 20,000 cells were plated in wells of standard tissue culture-treated plates (Corning, Corning, NY, USA) and treated the following day with indicated compounds and concentrations. For re-plated spheres (Figure S1B), 7-day-old spheres were filtered using a 40 µM filter (Fisher Scientific, Hampton, NH, USA), washed once with 1× PBS, and incubated with trypsin 0.05% EDTA at 37 °C (Thermo Fisher Scientific, Waltham, MA, USA) to achieve a single cell suspension (approximately 10–30 min, depending on the PDAC culture). Trypsinized cells were counted and 20,000 cells were plated in wells of standard tissue culture-treated plates (Corning) and treated the following day with indicated compounds and concentrations.

Data set [2] relates to mouse embryonic stem cells (mESCs). In words: mESC viability (MTS) screen and dose response. Format: cell-based. Particulars: Mus musculus, Embryonic stem cell, 30 h. As to the method:
as §1, §2

The test system of data set [3] is sphere-derived PDAC2 cells. As to the kind of experiment: Tumor initiating capacity of pre-treated cells injected subcutaneously. It is filed as in vivo, NU-Foxn1nu nude mice. Particulars: cells treated 3 days with 0.1 µg/mL GEM or compound at 1.25 µM, then injected subcutaneously. The method, then: Female 6- to 8-week-old NU-Foxn1nu nude mice (Envigo, Spain) were subcutaneously injected with control or pre-treated 1 × 10^4 PDAC cells in 50 µL of Matrigel^TM (Corning). Tumor growth was monitored bi-weekly for up to 10 weeks. For Siramesine experiments, mice were subcutaneously implanted with PDAC1 and PDAC3 PDXs. After 4 weeks of tumor growth, mice were randomized into treatment groups (5 mice per group). Mice were treated with Siramesine twice a week (30 mg/kg by oral gavage formulated in 0.5% methylcellulose 15 cP in 0.9% NaCl solution) for ~4 weeks. Gemcitabine (GEMZAR®, Eli Lilly, Indianapolis, IN, USA) was administered twice a week (125 mg/kg i.p.) for ~4 weeks. Tumor volumes (mm^3) were determined twice per week using a digital caliper. Mice were sacrificed at 24 days post treatment initiation and tumors were extracted and analyzed by flow cytometry as described above. For second generation tumor formation, 1000 and 100 cells of indicated treatment groups were resuspended in Matrigel ^TM and injected subcutaneously in recipient NU-Foxn1nu nude mice and tumor formation was monitored for 10 weeks. Mice were housed according to institutional guidelines and all experiments were performed in compliance with the institutional guidelines for the welfare of experimental animals approved by the Universidad Autónoma de Madrid Ethics Committee (CEI 60-1057-A068) or by the Instituto de Salud Carlos III Ethics Committee (CBA12_2014-v3) and La Comunidad de Madrid (PROEX 335/14 or PROEX 53/14) and in accordance with the guidelines for Ethical Conduct in the Care and Use of Animals as stated in The International Guiding Principles for Biomedical Research involving Animals, developed by the Council for International Organizations of Medical Sciences (CIOMS).

For the next data set, the target named is T1, HASPIN (Homo sapiens, UniProt Q8TF76).
T1 sequence (Q8TF76 1-798): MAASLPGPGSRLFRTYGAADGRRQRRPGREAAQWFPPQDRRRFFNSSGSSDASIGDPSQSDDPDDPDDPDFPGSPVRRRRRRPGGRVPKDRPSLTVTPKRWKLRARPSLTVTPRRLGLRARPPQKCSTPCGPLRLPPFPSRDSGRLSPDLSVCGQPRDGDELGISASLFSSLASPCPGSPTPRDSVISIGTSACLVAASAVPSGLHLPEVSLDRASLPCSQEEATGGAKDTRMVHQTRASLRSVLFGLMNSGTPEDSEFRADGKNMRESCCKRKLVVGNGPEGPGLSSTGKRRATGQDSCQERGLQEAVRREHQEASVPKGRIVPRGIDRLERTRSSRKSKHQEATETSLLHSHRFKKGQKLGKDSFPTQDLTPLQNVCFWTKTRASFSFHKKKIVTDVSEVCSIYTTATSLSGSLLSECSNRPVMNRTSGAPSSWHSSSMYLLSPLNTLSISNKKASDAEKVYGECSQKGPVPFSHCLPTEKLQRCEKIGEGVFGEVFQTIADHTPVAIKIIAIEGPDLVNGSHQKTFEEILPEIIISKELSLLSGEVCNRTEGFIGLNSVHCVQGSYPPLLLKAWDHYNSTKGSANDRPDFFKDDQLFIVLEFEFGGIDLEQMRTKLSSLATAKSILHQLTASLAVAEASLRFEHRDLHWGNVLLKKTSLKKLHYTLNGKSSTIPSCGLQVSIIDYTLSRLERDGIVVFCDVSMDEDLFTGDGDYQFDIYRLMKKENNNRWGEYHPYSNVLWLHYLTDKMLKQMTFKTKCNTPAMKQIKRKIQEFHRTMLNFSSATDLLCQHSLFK
In words: HASPIN ADP GLO kinase assay. It is filed as biochemical. As to conditions: 150 μM ATP. More on the design: purchased ProQinase, Freiburg, Germany. As to the method: PIM1/3 kinase activities were measured as previously described in Martínez-Gonzalez et al.. HASPIN activity was measured using the commercial ADP GLO assay (Promega), a homogeneous assay measuring ADP accumulation, as a universal product of kinase activity. The assay was done following general manufacturer recommendations and adapting protein to optimal conditions.
Background: ADP-Glo first removes unused ATP, then detects ADP through luciferase.

Each structure is given as a SMILES string.

The viability is the share of living cells, or the viability signal relative to a control. A higher viability goes with less harm to the cells. Broadly, the EC50 is the concentration giving half of the maximal effect. The low end stands for an effect from little substance, the high end for a need for much substance. By IC50 is commonly meant the concentration at which inhibition is half-maximal. Take `COc1nc2ccc(NCC3CCN(C)CC3)nn2c1C(=O)Nc1cccc(OC(F)(F)F)c1` [Cpd 1]: the viability at 30 h, 5 µM in data set [1] worked out at 8%. Further, in data set [2], the EC50 was found to be 1.33 µM. Moreover, the “tumor formation / growth from pre-treated cells” value in data set [3] is “complete inhibition in tumor formation”. Also, the IC50 at HASPIN is greater than 10 µM.

On to `CN1CCC(CNc2ccc3ncc(C(=O)Nc4cccc(OC(F)(F)F)c4)n3n2)CC1` [Cpd 2], for which the viability at 30 h, 5 µM in data set [1] worked out at 19%. The molecule further yielded an EC50 in data set [2] of 2.05 µM. The “tumor formation / growth from pre-treated cells” value in data set [3] was “reduced”. The molecule also yielded an IC50 against HASPIN (kinase orthogonal assay) of 0.915 µM.
